Results on seven compounds are retold here after ChEMBL document CHEMBL1201862, “PubChem BioAssay data set” (2004).

Activity calls are given as the source filed them.

By IC50 is commonly meant the concentration that inhibits the measured activity by half. In general, EC50 refers to the concentration at which the effect is half-maximal. As a reminder, the AC50 is the concentration giving half of the maximal activity seen.

One experiment concerns the target 14-3-3 protein gamma (Homo sapiens, UniProt P61981). The experiment in a line: modulators of 14-3-3 gamma client binding – dose response (AID 711). In kind it is functional.
Experiment [1] has as its target T1, RNA-binding protein pos-1 (Caenorhabditis elegans, UniProt G5EF15).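 Also: purified POS-1 fused to maltose binding protein made in E. coli; potency of compounds blocking POS-1 binding to fluorescent RNA.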
T1 sequence (G5EF15 whole entry): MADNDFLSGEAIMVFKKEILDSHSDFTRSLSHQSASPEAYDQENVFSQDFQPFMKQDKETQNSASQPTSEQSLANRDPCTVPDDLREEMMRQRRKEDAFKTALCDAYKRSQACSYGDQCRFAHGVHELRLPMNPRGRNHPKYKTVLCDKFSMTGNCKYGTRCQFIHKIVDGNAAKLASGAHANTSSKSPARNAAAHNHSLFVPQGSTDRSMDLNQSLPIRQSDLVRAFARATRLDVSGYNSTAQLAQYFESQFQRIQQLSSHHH
The experiment in a line: inhibitors of POS-1/mex-3 RNA binding, dose response, biochemical, fluorescence polarization (AID 1964). (In fluorescence polarisation assays a small probe gives low polarisation when free and higher when bound to something large.)

In experiment [2] the target is T2, Zinc finger protein mex-5 (Caenorhabditis elegans, UniProt Q9XUB2).
T2 sequence (Q9XUB2 whole entry): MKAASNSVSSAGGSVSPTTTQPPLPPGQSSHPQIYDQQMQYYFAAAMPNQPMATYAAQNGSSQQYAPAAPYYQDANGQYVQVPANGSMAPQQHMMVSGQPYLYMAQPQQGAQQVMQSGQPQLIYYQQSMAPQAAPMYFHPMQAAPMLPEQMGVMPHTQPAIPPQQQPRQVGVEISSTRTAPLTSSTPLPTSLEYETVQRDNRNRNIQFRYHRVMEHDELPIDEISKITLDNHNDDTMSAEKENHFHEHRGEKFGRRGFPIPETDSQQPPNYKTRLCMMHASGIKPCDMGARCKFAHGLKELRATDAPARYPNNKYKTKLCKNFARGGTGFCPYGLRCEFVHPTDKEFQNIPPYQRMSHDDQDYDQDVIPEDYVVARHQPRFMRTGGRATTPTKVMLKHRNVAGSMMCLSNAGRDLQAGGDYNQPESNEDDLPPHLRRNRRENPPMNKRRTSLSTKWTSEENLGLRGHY
The experiment in a line: MEX-5/TCR-2 RNA interaction inhibitors, dose response, biochemical, C. elegans, fluorescence polarization (AID 1960).

Another experiment concerns the target T3, Hexokinase HKDC1 (Homo sapiens, UniProt Q2TB90).
T3 sequence (Q2TB90 whole entry): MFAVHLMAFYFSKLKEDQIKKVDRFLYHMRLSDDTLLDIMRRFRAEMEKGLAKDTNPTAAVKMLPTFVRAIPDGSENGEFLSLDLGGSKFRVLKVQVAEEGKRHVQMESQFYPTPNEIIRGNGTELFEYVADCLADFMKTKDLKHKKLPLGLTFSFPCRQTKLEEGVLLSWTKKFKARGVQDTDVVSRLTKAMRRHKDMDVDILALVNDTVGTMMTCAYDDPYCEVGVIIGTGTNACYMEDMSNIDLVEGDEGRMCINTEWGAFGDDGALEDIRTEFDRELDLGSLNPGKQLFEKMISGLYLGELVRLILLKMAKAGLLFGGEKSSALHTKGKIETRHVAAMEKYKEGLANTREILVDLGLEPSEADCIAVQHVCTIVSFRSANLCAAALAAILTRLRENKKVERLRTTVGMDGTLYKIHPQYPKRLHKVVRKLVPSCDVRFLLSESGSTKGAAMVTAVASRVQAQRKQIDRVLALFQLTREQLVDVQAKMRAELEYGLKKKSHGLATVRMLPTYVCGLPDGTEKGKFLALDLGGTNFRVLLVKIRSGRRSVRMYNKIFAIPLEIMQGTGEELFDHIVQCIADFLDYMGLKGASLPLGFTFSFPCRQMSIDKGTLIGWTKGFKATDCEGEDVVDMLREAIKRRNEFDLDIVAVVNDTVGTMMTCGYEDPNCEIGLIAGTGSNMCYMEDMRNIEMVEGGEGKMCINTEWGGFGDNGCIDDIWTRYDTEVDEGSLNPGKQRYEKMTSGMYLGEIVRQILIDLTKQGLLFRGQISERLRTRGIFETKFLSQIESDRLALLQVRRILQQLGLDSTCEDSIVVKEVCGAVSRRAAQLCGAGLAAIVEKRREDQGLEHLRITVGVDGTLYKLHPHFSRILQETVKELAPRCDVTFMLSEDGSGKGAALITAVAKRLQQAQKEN
The experiment in a line: HKDC1 hexokinase inhibitors, dose response, biochemical, W721R variant (AID 504729). In kind it is functional.

Experiment [3] concerns the target Eukaryotic translation initiation factor 4E (Mus musculus, UniProt P63073). Kind of experiment: eIF4E–eIF4G protein interaction inhibitors, dose response, biochemical, TR-FRET (AID 855).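 Also: potency for disrupting eIF4E binding to eIF4GI seen as loss of FRET.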 It is filed as functional. For orientation: Time-resolved FRET reads energy transfer from a long-lived donor to a nearby acceptor.
In a further experiment the target is Large T antigen (Simian virus 40, UniProt P03070). It is filed as functional, Betapolyomavirus macacae.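 Also: Confirmatory-stage PubChem screen for compounds that inhibit SV40 T antigen.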
In experiment [4] the target is Induced myeloid leukemia cell differentiation protein Mcl-1 (Homo sapiens, UniProt Q07820). It is filed as functional.
In another experiment the target is Protein Tat (Human immunodeficiency virus type 1 group M subtype B (isolate HXB2)(HIV-1), UniProt P04608). It is filed as functional.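 Also: tat binding to TAR RNA read out by fluorescence polarization.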
Experiment [5] has as its target Mitogen-activated protein kinase 10 (Homo sapiens, UniProt P53779). The experiment in a line: Dose response biochemical screening assay for inhibitors of c-Jun N-Terminal Kinase 3 (JNK3). [Related pubchem assays: 746 ].
Experiment [6] addresses Dual specificity tyrosine-phosphorylation-regulated kinase 1A (Rattus norvegicus, UniProt Q63470). It is filed as biochemical, Homo sapiens.
For experiment [7], the target named is T4, Mannose-6-phosphate isomerase (Homo sapiens, UniProt P34949).
T4 sequence (P34949 whole entry): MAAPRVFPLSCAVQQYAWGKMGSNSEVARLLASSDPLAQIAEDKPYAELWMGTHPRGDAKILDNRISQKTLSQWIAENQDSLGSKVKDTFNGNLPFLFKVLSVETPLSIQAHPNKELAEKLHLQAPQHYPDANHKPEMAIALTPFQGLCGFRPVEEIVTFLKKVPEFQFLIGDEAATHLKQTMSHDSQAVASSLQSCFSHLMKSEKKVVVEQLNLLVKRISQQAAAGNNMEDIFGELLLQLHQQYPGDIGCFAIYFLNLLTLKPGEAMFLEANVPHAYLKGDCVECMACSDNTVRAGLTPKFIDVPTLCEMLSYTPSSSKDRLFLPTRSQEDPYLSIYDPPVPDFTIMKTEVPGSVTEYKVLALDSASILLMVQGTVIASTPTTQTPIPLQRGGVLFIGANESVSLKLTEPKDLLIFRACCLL
The experiment in a line: inhibitors of human PMI, primary screen, biochemical, fluorescence intensity, coupled assay (AID 1209).

Experiment [8] addresses T4, Mannose-6-phosphate isomerase. Kind of experiment: human PMI inhibitors, high substrate, primary screen, biochemical, fluorescence intensity, high mannose 6-phosphate (AID 1220).
The target in experiment [9] is Heat shock protein HSP 90-alpha (Homo sapiens, UniProt P07900). In kind it is functional, organism-based.
The target in experiment [10] is T5, Rac GTPase-activating protein 1 (Homo sapiens, UniProt Q9H0H5).
T5 sequence (Q9H0H5 whole entry): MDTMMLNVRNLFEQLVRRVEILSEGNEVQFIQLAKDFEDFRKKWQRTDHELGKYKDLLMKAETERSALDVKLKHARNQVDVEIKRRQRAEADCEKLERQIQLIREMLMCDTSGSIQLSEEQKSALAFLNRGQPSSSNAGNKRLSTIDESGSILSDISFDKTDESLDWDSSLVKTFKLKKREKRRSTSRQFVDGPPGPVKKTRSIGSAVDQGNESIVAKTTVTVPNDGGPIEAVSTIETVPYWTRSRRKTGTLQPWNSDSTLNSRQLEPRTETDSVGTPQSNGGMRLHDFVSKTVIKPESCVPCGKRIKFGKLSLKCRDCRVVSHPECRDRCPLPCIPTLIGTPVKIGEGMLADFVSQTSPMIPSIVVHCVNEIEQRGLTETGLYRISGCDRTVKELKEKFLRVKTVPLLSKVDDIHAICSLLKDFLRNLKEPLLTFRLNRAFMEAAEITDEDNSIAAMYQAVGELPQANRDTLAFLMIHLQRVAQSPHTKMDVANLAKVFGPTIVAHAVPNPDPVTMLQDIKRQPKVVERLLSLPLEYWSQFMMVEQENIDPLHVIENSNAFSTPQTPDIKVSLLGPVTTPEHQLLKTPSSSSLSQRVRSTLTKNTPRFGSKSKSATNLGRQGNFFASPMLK
The experiment in a line: MgcRacGAP GTPase-activating activity inhibitors, confirmation, biochemical, ADP Hunter fluorescence, primary and confirmatory (AID 624330). In kind it is functional.

Experiment [11] is described as follows: NIH-3T3 fibroblast cytotoxicity, dose response, cytotoxicity control, cell-based, fluorescence, Alamar Blue, secondary assay (AID 2327).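 Also: NIH-3T3 mouse fibroblasts cultured with fluconazole at 8 µg/mL.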 It is filed as functional. On the technique in general: Alamar Blue is a resazurin reagent that responds to reducing activity.
A short description of experiment [12]: C. albicans growth with fluconazole, confirmation, fluorescence, retest (AID 2467). In kind it is functional, cell-based.
Experiment [13] is described as follows: cytotoxicity toward DRD oncogenic fibroblasts, dose response, cell-based, non-viral oncogenic, luminescence (AID 1934). It is filed as functional. As to conditions: Homo sapiens.
Experiment [14] concerns BJ. Kind of experiment: cytotoxicity toward BJ-TERT-LT-ST fibroblasts, dose response, cell-based, RAS-independent, luminescence (AID 1935).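 Also: BJ fibroblasts immortalized with TERT plus LT and ST oncogenes.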 In kind it is functional. Particulars: Homo sapiens.
Experiment [15] is described as follows: Luminescent dose response cell-based high throughput screening assay for inhibitors of the Janus kinase 2 mutant JAK2V617F. [Related pubchem assays: 1446 (Primary screen.), 1521 (Confirmation assay.), 1486 (Counter screen.)]. It is filed as functional.
Experiment [16] concerns BJ. The experiment in a line: cells. It is filed as functional, cell-based. As to conditions: Homo sapiens.
Experiment [17] concerns BJ. The experiment in a line: cytotoxicity toward BJ-TERT fibroblasts, dose response, cell-based, RAS-independent, luminescence (AID 1933). Particulars: Homo sapiens. It is filed as functional.
For experiment [18], the target named is Peroxisome proliferator-activated receptor gamma/Nuclear receptor corepressor 2 (Homo sapiens, UniProt P37231+Q9Y618). The experiment in a line: Counterscreen for NR2E3 inverse agonists: TR-FRET-based biochemical high throughput dose response assay to identify inverse agonists of the interaction between peroxisome proliferator-activated receptor gamma (PPARg) and nuclear receptor co-repressor 2 (NCOR2). In kind it is functional.

Experiment [19] deals with Photoreceptor-specific nuclear receptor (Homo sapiens, UniProt Q9Y5X4). Kind of experiment: NR2E3 inverse agonists, dose response, biochemical, TR-FRET (AID 463256). In kind it is functional.
For experiment [20], the target named is Peroxisome proliferator-activated receptor gamma/Nuclear receptor coactivator 3 (Homo sapiens, UniProt P37231). It is filed as functional.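 Also: agonist potency for raising coactivator recruitment to the receptor.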
In experiment [21] the target is Peroxisome proliferator-activated receptor gamma/Nuclear receptor coactivator 1 (Homo sapiens, UniProt P37231). It is filed as functional.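 Also: agonist potency as compounds enhance coactivator SRC-1 recruitment to PPARgamma.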
Experiment [22] deals with Peroxisome proliferator-activated receptor gamma/Nuclear receptor coactivator 2 (Homo sapiens, UniProt P37231). It is filed as functional.
For the next experiment, the target named is NADPH oxidase 1 (Homo sapiens, UniProt Q9Y5S8). The experiment in a line: Late-stage luminescence-based cell-based dose response assay to identify inhibitors of NADPH oxidase 1 (NOX1): Synthesized analogs. It is filed as functional.
Experiment [23] has as its target G-protein coupled receptor 55 (Homo sapiens, UniProt Q9Y2T6). The experiment in a line: GPR55 agonists via beta-arrestin recruitment, primary screen, imaging, U2OS cells, beta-arrestin-GFP redistribution (AID 1961). It is filed as functional.

Sequence of Mitogen-activated protein kinase 10 (P53779 whole entry): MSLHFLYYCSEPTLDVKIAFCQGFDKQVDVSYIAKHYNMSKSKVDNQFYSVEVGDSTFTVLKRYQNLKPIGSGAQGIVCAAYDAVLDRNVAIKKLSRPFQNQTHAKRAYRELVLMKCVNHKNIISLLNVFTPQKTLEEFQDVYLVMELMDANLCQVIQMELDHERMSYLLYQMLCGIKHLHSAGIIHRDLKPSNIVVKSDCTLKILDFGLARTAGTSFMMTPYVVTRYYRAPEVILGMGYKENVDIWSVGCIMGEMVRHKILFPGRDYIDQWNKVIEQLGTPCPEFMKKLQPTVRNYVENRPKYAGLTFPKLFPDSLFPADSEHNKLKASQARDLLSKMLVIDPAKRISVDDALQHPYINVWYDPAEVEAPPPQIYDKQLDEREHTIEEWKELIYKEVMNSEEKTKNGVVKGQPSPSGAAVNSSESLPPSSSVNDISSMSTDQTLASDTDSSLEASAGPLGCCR
Sequence of NADPH oxidase 1 (Q9Y5S8 whole entry): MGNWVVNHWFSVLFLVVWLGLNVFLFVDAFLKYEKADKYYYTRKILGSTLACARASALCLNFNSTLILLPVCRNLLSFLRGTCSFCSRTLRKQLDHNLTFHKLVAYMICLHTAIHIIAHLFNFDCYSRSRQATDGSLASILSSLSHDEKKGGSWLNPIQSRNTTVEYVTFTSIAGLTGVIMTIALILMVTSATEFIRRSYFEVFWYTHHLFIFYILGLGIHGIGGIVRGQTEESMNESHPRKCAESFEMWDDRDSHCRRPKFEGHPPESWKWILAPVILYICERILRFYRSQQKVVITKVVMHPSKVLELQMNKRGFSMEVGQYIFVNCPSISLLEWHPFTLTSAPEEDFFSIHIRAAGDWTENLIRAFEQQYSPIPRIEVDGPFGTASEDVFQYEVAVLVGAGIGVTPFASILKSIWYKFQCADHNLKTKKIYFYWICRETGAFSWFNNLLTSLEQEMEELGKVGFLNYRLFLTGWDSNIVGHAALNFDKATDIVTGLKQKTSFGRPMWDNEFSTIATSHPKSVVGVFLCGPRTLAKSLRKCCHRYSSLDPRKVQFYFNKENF
Sequence of Peroxisome proliferator-activated receptor gamma/Nuclear receptor corepressor 2 (P37231 whole entry): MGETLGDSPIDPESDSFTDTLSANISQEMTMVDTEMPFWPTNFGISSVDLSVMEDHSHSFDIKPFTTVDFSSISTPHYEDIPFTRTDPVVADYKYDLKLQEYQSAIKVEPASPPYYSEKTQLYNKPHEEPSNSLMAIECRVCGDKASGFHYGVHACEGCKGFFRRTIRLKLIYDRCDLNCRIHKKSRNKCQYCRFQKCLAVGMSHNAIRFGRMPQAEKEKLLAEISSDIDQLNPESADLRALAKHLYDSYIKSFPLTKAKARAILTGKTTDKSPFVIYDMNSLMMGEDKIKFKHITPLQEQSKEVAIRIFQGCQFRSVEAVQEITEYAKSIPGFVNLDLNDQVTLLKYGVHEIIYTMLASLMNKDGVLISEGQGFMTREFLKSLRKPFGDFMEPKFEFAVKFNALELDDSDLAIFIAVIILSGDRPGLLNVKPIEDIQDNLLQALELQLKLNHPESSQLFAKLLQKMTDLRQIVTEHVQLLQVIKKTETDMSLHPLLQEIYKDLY
Sequence of Peroxisome proliferator-activated receptor gamma/Nuclear receptor corepressor 2 (Q9Y618 whole entry): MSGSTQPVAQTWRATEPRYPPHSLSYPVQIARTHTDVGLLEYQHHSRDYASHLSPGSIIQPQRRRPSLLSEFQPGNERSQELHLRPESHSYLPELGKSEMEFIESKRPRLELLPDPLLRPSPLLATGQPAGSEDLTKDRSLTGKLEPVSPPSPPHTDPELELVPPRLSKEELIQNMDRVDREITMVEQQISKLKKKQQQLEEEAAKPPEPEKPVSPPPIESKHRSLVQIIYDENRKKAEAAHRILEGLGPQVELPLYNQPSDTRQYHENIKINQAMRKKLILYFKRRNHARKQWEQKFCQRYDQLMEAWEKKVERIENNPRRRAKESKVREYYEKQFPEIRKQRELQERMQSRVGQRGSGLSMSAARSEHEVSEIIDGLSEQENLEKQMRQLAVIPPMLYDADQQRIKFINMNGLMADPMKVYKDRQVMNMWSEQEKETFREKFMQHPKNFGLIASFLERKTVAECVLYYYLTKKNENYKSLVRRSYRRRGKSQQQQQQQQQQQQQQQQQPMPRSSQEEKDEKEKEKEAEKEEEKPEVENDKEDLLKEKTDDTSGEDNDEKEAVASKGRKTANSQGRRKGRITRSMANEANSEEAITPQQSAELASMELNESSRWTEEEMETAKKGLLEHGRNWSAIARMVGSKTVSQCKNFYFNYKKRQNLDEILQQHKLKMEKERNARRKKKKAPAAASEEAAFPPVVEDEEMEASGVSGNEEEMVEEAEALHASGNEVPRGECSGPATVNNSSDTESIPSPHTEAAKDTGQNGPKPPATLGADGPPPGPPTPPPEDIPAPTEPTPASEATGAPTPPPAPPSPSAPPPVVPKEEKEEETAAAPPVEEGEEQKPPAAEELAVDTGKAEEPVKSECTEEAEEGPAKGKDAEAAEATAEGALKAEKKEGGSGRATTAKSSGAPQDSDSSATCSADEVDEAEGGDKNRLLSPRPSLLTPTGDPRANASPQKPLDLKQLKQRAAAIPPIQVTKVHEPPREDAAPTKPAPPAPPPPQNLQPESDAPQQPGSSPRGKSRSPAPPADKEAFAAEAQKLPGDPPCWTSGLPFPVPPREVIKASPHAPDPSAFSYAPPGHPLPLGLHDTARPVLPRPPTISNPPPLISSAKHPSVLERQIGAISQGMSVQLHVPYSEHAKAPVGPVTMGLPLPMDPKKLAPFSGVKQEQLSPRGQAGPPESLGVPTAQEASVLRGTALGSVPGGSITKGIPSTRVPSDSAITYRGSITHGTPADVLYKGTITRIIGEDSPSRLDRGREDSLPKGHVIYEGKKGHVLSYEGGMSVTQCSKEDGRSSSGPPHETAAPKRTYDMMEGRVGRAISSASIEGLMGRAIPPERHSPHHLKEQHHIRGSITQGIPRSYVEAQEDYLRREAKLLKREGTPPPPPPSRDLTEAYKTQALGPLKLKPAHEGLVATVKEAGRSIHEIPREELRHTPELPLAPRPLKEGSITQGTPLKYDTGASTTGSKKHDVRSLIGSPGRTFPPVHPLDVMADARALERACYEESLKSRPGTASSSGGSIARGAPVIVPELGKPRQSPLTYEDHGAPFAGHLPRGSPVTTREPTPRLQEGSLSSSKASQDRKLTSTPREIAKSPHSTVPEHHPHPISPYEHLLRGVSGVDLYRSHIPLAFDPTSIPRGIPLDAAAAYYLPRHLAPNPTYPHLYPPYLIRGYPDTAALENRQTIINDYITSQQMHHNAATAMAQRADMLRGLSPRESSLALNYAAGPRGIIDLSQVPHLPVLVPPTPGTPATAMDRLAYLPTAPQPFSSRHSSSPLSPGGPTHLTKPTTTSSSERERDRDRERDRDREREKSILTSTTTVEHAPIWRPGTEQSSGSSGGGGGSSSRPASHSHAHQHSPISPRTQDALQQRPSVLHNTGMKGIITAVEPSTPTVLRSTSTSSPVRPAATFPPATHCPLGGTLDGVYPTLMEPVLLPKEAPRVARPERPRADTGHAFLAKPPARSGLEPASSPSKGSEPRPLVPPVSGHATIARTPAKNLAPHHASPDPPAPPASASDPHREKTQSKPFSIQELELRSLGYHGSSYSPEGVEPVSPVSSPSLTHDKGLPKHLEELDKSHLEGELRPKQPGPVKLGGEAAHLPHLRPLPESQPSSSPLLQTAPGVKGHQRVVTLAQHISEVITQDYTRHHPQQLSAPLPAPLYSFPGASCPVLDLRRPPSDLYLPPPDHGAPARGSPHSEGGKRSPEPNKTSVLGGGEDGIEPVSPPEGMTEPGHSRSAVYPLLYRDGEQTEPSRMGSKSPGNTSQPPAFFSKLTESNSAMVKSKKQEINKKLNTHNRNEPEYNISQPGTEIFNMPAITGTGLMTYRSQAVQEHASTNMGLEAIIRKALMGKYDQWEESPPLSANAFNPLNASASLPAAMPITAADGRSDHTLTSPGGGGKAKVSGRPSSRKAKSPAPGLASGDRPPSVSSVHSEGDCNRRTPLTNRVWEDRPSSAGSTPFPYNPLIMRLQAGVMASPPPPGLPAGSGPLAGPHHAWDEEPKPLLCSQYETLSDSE
Sequence of Protein Tat (P04608 whole entry): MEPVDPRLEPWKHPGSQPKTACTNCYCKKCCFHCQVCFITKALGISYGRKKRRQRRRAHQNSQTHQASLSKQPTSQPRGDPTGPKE
Sequence of Photoreceptor-specific nuclear receptor (Q9Y5X4 whole entry): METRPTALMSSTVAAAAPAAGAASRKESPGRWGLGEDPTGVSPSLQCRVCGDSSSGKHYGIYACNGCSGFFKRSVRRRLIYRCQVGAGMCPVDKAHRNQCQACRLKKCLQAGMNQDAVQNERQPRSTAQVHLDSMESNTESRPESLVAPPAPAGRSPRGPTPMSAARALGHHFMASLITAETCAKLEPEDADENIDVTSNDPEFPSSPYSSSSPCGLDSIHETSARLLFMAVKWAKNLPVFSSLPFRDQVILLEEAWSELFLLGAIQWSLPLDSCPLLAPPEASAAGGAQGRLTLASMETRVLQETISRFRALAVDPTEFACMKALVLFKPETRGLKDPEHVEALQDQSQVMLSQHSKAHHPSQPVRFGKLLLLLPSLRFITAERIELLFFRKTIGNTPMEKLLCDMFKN
Sequence of 14-3-3 protein gamma (P61981 whole entry, the tested form may be a part): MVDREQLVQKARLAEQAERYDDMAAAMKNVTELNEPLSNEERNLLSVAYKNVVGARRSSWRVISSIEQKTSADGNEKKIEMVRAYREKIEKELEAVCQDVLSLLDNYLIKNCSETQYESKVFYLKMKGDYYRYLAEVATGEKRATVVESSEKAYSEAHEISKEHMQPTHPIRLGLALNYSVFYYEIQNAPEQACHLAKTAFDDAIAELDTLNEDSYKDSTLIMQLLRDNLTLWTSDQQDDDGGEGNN
Sequence of Eukaryotic translation initiation factor 4E (P63073 whole entry): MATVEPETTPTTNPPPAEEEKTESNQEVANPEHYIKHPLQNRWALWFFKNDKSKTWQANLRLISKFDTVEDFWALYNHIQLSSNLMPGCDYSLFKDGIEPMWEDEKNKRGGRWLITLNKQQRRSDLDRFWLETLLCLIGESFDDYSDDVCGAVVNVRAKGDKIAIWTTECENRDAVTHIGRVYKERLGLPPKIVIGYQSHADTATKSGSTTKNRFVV

As for `CC1=CC(C#N)(C#N)C(C#N)(C#N)C(c2ccccc2)N1` (stereo not drawn), the IC50 at 14-3-3 protein gamma was 3.15 µM (active). Moreover, the EC50 in [1] was 3.14 µM (active); in [2], 2.46 µM (active).
As for `O=C1NC(=S)N(c2ccc(F)cc2)C(=O)/C1=C\c1ccoc1`, the IC50 was 10.7 µM (active) at Hexokinase HKDC1; 50 µM (inactive) in experiment [3]; 12.8 µM (active) at Large T antigen; 1.53 µM (active) in experiment [4]; > 25 µM (active) on Protein Tat.
Consider `C/C(=N/Cc1cccnc1)C1=C(O)c2ccccc2C1=O`, for which the IC50 in [5] was 20 µM (not active). Besides, the AC50 in experiment [6] is 12.9 µM (active).
On to `Cc1ccc(/C=[N+](\[O-])c2ccc(N(C)C)cc2)c2nsnc12`, for which the IC50 is > 50 µM (not active) in experiment [7], > 50 µM (not active) in [8] and 9.25 µM (active) in experiment [10]. Besides, in experiment [9], the AC50 is 7.84 µM (active). For the same compound, the EC50 in [11] is 8.84 µM (inconclusive); in experiment [12] it was 2.41 µM (active).
`COc1ccc(Nc2nc(N)nc(CCl)n2)cc1`: the EC50 in experiment [13] is 2.25 µM (active); in the experiment with BJ [14], > 150 µM (inconclusive); in the experiment with BJ [16], 3.57 µM (active); in the experiment with BJ [17] it was 498 nM (inconclusive). For the same compound, in experiment [15], the IC50 was 1.45 µM (active).
As for `Cn1c(SCC(=O)Nc2cccc(Br)c2)nnc1-c1cc2ccccc2o1`, the IC50 was 152 nM (active) in [18] and 167 nM (active) in experiment [19]. The figures for the EC50 in experiment [20], in [21] and in experiment [22] were 18.3 µM (not active), 13.3 µM (not active) and 14.5 µM (not active), respectively.
Turning to `O=C(CSc1nc2ccccc2o1)N1c2ccccc2Sc2ccc(C(F)(F)F)cc21`, the half-maximal inhibitory concentration (IC50) against NADPH oxidase 1 is > 50 µM (not active). The EC50 in [23] is > 32 µM (inactive).
